Here are results for 2 substances from patent publication US11548952B2, “Bispecific antibody against CD3 and CD20 in combination therapy for treating diffuse large B-cell lymphoma” (GENMAB A/S, priority 2020, dated 2023).

Read-outs that look alike come from different tables or passages of the source.

Assay [1] addresses T1, CD20 (Homo sapiens, UniProt P11836).
T1 sequence (P11836 1-297): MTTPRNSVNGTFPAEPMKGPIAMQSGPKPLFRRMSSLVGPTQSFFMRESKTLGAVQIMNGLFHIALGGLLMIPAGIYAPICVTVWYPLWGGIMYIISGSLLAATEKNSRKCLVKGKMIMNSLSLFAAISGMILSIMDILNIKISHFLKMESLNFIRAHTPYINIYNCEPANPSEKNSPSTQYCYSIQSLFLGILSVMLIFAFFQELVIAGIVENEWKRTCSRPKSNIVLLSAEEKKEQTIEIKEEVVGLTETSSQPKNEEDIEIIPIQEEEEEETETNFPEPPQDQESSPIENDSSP
The conditions noted are these: bind to a different epitope; cited from earlier work.

In assay [2] the test system is CD20-expressing Raji-luc tumor cells. The conditions noted are these: NOD-SCID mice injected with Raji-luc tumor cells and PBMCs; even in the presence of an excess of IgG1-RTX-FEAR; cited from earlier work.
In assay [3] the test system is R/R DLBCL eligible for ASCT. It counts as in vivo, human. The conditions noted are these: in combination with R-DHAX/C, preliminary. On the procedure: The trial is conducted in 2 parts: dose escalation (Part 1) and expansion (Part 2). Subjects participate in only one part. Both parts consist of a screening period, a treatment period, a safety follow-up period, and a survival follow-up period.
Epcoritamab is initially be administered in combination with R-DHAX/C in a 3-subject cohort. DLTs are evaluated during the first 28 days.
Dexamethasone (40 mg) is administered intravenously or orally on days 1-4 of a cycle once every 3 weeks (Q3W) for cycles 1-3. Cytarabine (2 g/m^2) is administered intravenously on day 1 (usually over 3 hours), repeated after 12 hours (may result in a second dose on day 2 depending on timing of first dose), once every 3 weeks (Q3W) for cycles 1-3. […] Carboplatin (for DHAC) (AUC=5 mg/ml/min; Calvert's formula) is administered intravenously on day 1 once every 3 weeks (Q3W) for cycles 1-3.
CRS is graded according to the ASTCT grading for CRS (Tables 6 and 7), and for treatment of CRS, subjects should receive supportive care. […]

Regarding “IgG1-CD20: anti-CD20 antibody of which the CD20 arm of epcoritamab is derived”, in assay [1], the “competition for CD20 binding” value is “compete for CD20 binding”.

Regarding “Epcoritamab: IgG1 bispecific CD3×CD20 antibody; heavy and light chain pairs SEQ ID NOs: 24 and 25, and 26 and 27; CAS 2134641-34-0”, the “tumor growth in the xenograft model” value in assay [2] was “effectively reduce tumor growth”. For the same substance, the responders observed in assay [3] (escalation phase, as of Sep. 8, 2021, 22 patients dosed in total) is 4; in assay [3] (expansion phase 48 mg, as of Sep. 8, 2021, response data not completely entered), 0.
